# Experimental data from patent US12038433B2, “Methods and apparatus for high-throughput screening for testing permeability and retention of compounds across biological barriers” (Board of Regents, The University of Texas System, priority 2019, dated 2024).
# Assays:
# [1] = 96-well plate permeation study of doxycycline, skin measured with mass spec pen; format: in vitro ADME; conditions: 24 hours, different concentrations applied
# Experimental: A permeation study was done using the 96-well plates screening method over a course of 24 hours. Doxycycline at different concentrations was used as a model drug. After 24 hours, the receptor fluid was removed, and the plates were disassembled. The mass spec pen (described by Zhang et al. and Sans et al.) was used to measure the amount of doxycycline on the top layers of the skin (epidermis side) and on the bottom layers of the skin (dermis side) by flipping the skin upside down (26, 27).
# [2] = HTS formulation screening, retention of SRB in skin layers by 2 photon microscopy (3x2x3 full factorial design); format: in vitro ADME, human
# Experimental: (§1) Two bottomless 96-well plates from Greiner bio-one were used.
# (§2) The receptor plate was sealed with an adhesive film and overfilled with PBS (pH=7.4).
# (§3) An 8×9 cm of skin tissue was placed on top of the receptor plate, dermis side in contact with the receptor fluid and stratum corneum up. The donor plate was placed on top of the skin. A 4 kg weight was placed on top and nuts were attached to the plate.
# (§4) This sandwich was incubated for 1 hour at 32 deg C. and 75 rpm. After 1 hour, the formulations prepared in Table 1 and containing 0.5 mg/ml of SRB as a model hydrophilic drug were applied in triplicate to the donor wells.
# (§5) The receptor compartment was analyzed by fluorescence using a plate reader and the skin was analyzed using 2 photon microscopy, the same way as described in Example 4. Images were collected at 256×256 pixels and 223.78 μm×223.78 μm. The z-axis profile was obtained by acquiring images at every 10 μm down the skin, up to 200 μm. The detailed 2-photon analysis utilized in this study took approximately 2 h (around a minute to 2 min for each well).
# A 3×2×3 full factorial design was used to design the experiment and statistically analyze the differences in permeation and retention of the formulations applied in the skin.
# [3] = Feasibility in vitro permeation study using squared and flat 384-well plates; format: in vitro ADME; conditions: 8 h, between the 0.5 mg/ml SRB and the 0.05 mg/ml SRB applied, lateral diffusion present
# Experimental: Feasibility studies were conducted using squared and flat 384-well plates with no ridges or projected wells. The plates were assembled the same way as presented in Example 4. […] […] […] Samples were taken after 8 h and measured using fluorescence in a plate reader.
# [4] = HTS formulation screening, permeability of SRB across the skin into the receptor fluid (plate reader fluorescence); format: in vitro ADME, human; conditions: not statistically significant (FIG. 10 E)
# Experimental: as §1, §2, §3, §4, §5
# [5] = not tape-stripped; cited from earlier work
# [6] = Skin retention analysis of SRB by two-photon-induced fluorescence imaging (FC vs HTS); format: in vitro ADME, human; conditions: surface down to 150 μm, after 8 h (FIG. 8)
# Text: A two-photon-induced fluorescence imaging was used to determine the retention of SRB in the skin using a Prairie Technologies Ultimalntravital 2PA confocal microscope system (Park et al., 2008; Denk et al., 1990). The microscope objective was an Olympus® 10×, 0.30 NA, UMPlanFL N water immersion lens. Two-photon laser excitation was provided by a Spectra-Physics Tsunami® Ti:Sapphire laser with a τP=150 fs and P=108 mW. The laser was tuned to 1000 nm, since SRB excites at 550 nm and no skin autofluorescence is observed at this wavelength. Four fluorescence channels were detected simultaneously during imaging. The photomultiplier tube (PMT) bias voltages for each channel were set to 650 V for channel 1, 650 V for channel 2 (where SRB is detected), 800 V for channel 3 (where we can measure the autofluorescence of the skin), and 800 V for channel 4. Skin autofluorescence or second harmonic generation of collagen were detected in channels 3 and 4, respectively (Roberts et al., 2011). The fluorescence emission of SRB was recorded in channel 2 (λ=595±35 nm) since the wavelength of emission for SRB is 590 nm. Skin images were recorded above the surface of the skin and the maximum fluorescence intensity was considered to be the top layer or surface of the skin since excess of formulation was still present at the top of the skin at the end of the permeation study (8 h). […]
# [7] = Permeation of SRB across tape-stripped skin, 96-well HTS compared with Franz cells, receptor fluid fluorescence; format: in vitro ADME, human; conditions: SRB 0.5 mg/ml, 8 h, 32° C., p-value >0.05 (FIG. 7)
# Text: “The 96-well plates, with and without bottom, were modified by inserting 2 symmetric and parallel holes in each side of the plate using a drill. The holes were made in order to attach the plates together as a sandwich. The skin was tape-stripped 15 times, rubbing with a thumb three times before each strip (in the same manner as for the Franz cells). Tape-stripping was necessary to allow for drug permeation across the skin and direct quantification in the receptor compartment. […] The receptor fluid analysis was needed to compare permeability of SRB between methods (FC and HTS).”
# “The 96-well plate with the bottom was used as the receptor compartment. The volume of each well is 380 μL and the area of diffusion is 0.38 cm^2. The receptor compartment was overfilled with degassed PBS (pH=7.4) to avoid the formation of any bubbles that would hinder drug permeation. […]
# The plate was incubated at 32° C. for 1 h. […] After 8 h, the plates were disassembled and the receptor plate was analyzed using a spectrophotometer (Infinite M200 microplate reader, TECAN US Inc, NC, USA) for the quantification of fluorescence intensity (λexcitation=550 nm and λemission=590 nm). Standard solutions of SRB in PBS (pH=7.4) in the range of 500-0.03 μg/ml were prepared and the fluorescence intensity was measured to obtain the calibration curve. […]
"permeation, amount on top (epidermis side) and bottom (dermis side) layers of the skin [1]","Statistically significant variables on the amount of SRB retained ([2]; skin depth 0 μm, solvent ratio factor)","Statistically significant variables on the amount of SRB retained ([2]; skin depth 0 μm, surfactant concentration factor)","Statistically significant variables on the amount of SRB retained ([2]; skin depth 20 μm, solvent ratio factor)","Statistically significant variables on the amount of SRB retained ([2]; skin depth 20 μm, surfactant concentration factor)","Statistically significant variables on the amount of SRB retained ([2]; skin depth 100 μm, solvent ratio factor)","Statistically significant variables on the amount of SRB retained ([2]; skin depth 100 μm, surfactant concentration factor)",Statistically significant variables on the amount of SRB retained ([2]; skin depth 150 μm),permeability of SRB across the skin [3],"amount of drug across the skin, into the receptor solution ([4]; OA (oleic acid) in the formulation)",amount of SRB across the skin ([4]; increasing the concentration of Tween 80),"depth profile/Z-axis profile, relative change in fluorescence intensity over every 5 μm depth in the skin, FC vs HTS [6]","permeation and distribution of the drug, Franz cells (FC) vs HTS [7]",Structure (SMILES),"amount of SRB inside the skin ([2]; 5% and 2.5% surfactant concentration compared to no surfactant, post hoc analysis)",amount of the model drug in the skin layers ([2]; DMSO alone compared to 50:50 mixture of DMSO:Propylene glycol),"amount of SRB into the skin ([2]; DMSO compared to Propylene glycol alone, only at lower depths (100-150 micrometers))","amount of drug inside the skin ([2]; OA (oleic acid) in the formulation, PG solvent (FIG. 10 A, B))","amount of SRB inside the skin ([2]; increasing the concentration of Tween 80, PG solvent (FIG. 10 C, D))",permeation across intact skin [5]
Changes in permeation were detected,–,–,–,–,–,–,–,–,–,–,–,–,C[C@H]1c2cccc(O)c2C(=O)C2=C(O)[C@]3(O)C(=O)C(C(N)=O)=C(O)[C@@H](N(C)C)[C@@H]3[C@@H](O)[C@@H]21 [Doxycycline],–,–,–,–,–,–
–,Solvent ratio (*),Surfactant concentration (**),Solvent ratio (**),Surfactant concentration (*),Solvent ratio (**),Surfactant concentration (*),Solvent ratio (**),changed,also across the skin,not across the skin,similar,almost identical,"CCN(CC)c1ccc2c(-c3ccc(S(=O)(=O)O)cc3S(=O)(=O)[O-])c3ccc(=[N+](CC)CC)cc-3oc2c1 [SRB, Sulforhodamine B]",increases the amount of SRB inside the skin,enhances the amount of the model drug in all the skin layers,significantly enhance the amount of SRB into the skin,increased the amount of drug inside the skin,increased the amount of SRB inside the skin,unable to permeate intact skin
